Data on 29 molecules can be found in patent US20250034127A1, “AUTOPHAGY INDUCING COMPOUNDS AND USES THEREOF, IN PARTICULAR FOR DISEASES OF THE CNS” (Samsara Therapeutics Inc., priority 2021, published 2025).

For one assay, the system named is Human osteosarcoma U2OS cells. The assay can be described thus: Assay to measure lysosome and autolysosome (acidic vesicle) formation in U2OS cells. The conditions noted are these: Homo sapiens, concentration of 0.8 μM, read-out: Activity (percentage increase in acidic vesicle formation over the DMSO-treated control). Type of assay: cell-based. As to the method: Lysosomes play a fundamental role in the autophagic pathway by fusing with autophagosomes and creating ‘autolysosomes’ in order to digest their contents. Stimulation of lysosome and autolysosome formation by a compound is indicative of a stimulation of autophagy. The ability of compounds to stimulate lysosome and autolysosome formation, and thus autophagy, in live cells was assessed via fluorescent microscopy using various fluorescent stains for labelling and tracking acidic organelles (including lysosomes and autolysosomes) such as: LysoView™ 650 (70059 and 70059-T, Biotium), Lyso View™633 (70058 and 70058-T, Biotium) and LysoTracker™ Deep Red (L12492, ThermoFisher Scientific). The cellular phenotype was quantitatively assessed for the induction of acidic vesicle formation and compared to a non-treated control, thus providing a measure of the ability of the compound under investigation to stimulate autophagy.
Representative procedure using LysoView™ 633 dye or LysoTracker™ Deep Red dye: Human osteosarcoma U2OS cells (40,000 cells/well) were seeded in a 24 well glass bottom plate (Sensoplate, Greiner Bio-One) and were incubated overnight in a humidified atmosphere at 37° C. and 5% CO2. Cells were grown in DMEM (Gibco) supplemented with 10% Fetal Bovine Serum (FBS) and 100 units/ml penicillin and 100 μg/ml streptomycin (Invitrogen). After the attachment period, cells were treated with different compounds of interest (at various concentrations in DMSO) or DMSO (non-treated control) in cell culture medium and were incubated for 24 hours. Compound-containing medium was removed and cells were incubated with pre-warmed cell culture medium containing 1× Lyso View™ 633 (70058 and 70058-T, Biotium) or 50 nM LysoTracker™ Deep Red (L12492, ThermoFisher Scientific) for 45 minutes at 37° C. Finally, cell nuclei were stained for 10 minutes using Hoechst 33342 (1 μg/mL) and then the medium was replaced with fresh medium. The 24 well plate was then fitted into a heated stage on the microscope and cells maintained at 37° C. Images were captured using appropriate filter set for Cy5 and DAPI detection with the EVOS M7000 Microscope (ThermoFisher Scientific). The cellular phenotype was visually assessed for the induction of acidic vesicle formation relative to the non-treated control; multiple images were acquired and analysed using ImageJ or Cell Profiler.
For the molecule `CN(CCN(C)C1CCCCC1)C(=O)c1csc(-c2cnn(-c3ccccc3)c2)n1` [Compound 190, N-{2-[cyclohexyl(methyl)amino]ethyl}-N-methyl-2-(1-phenyl-1H-pyrazol-4-yl)-1,3-thiazole-4-carboxamide], the activation at 0.8 µM was in the range of 10 to 30%.
The same measure, in the same setting: under `CC(=O)N1CCN(C(=O)c2csc(-c3cnn(-c4ccccc4)c3)n2)CC1` [Compound 198, 1-{4-[2-(1-phenyl-1H-pyrazol-4-yl)-1,3-thiazole-4-carbonyl]piperazin-1-yl}ethan-1-one] stands 10 to 30%.
Regarding `O=C(NCCN1CCCCC1)c1csc(-c2cnn(-c3ccccc3)c2)n1` [Compound 202, 2-(1-phenyl-1H-pyrazol-4-yl)-N-[2-(piperidin-1-yl)ethyl]-1,3-thiazole-4-carboxamide], the activation at 0.8 µM is 30 to 50%.
Same read-out and setting: under `O=C(NCCN1CCOCC1)c1csc(-c2cnn(-c3ccccc3)c2)n1` [Compound 204, N-[2-(morpholin-4-yl)ethyl]-2-(1-phenyl-1H-pyrazol-4-yl)-1,3-thiazole-4-carboxamide] stands 10 to 30%; under `CN1CCC[C@H](NC(=O)c2csc(-c3cnn(-c4ccccc4)c3)n2)C1` [Compound 208, N-[(3S)-1-methylpiperidin-3-yl]-2-(1-phenyl-1H-pyrazol-4-yl)-1,3-thiazole-4-carboxamide], 10 to 30%; under `CCN1CCC(NC(=O)c2csc(-c3cnn(-c4ccc(F)cc4)c3)n2)CC1` [Compound 213, N-(1-ethylpiperidin-4-yl)-2-[1-(4-fluorophenyl)-1H-pyrazol-4-yl]-1,3-thiazole-4-carboxamide], 10 to 30%.
Consider `CCN1CCC(NC(=O)c2ccc(-c3cnn(-c4ccccc4)c3)[nH]2)CC1` [Compound 214, N-(1-ethylpiperidin-4-yl)-5-(1-phenyl-1H-pyrazol-4-yl)-1H-pyrrole-2-carboxamide], for which the activation at 0.8 µM lay within 10 to 30%.
Turning to `NS(=O)(=O)N1CCN(C(=O)c2ccc(-c3cnn(-c4ccccc4C(F)(F)F)c3)[nH]2)CC1` [Compound 216, 4-(5-{1-[2-(trifluoromethyl)phenyl]-1H-pyrazol-4-yl}-1H-pyrrole-2-carbonyl)piperazine-1-sulfonamide], the activation at 0.8 µM fell in the range of 10 to 30%.
For the molecule `CCN1CCC(N(C)C(=O)c2csc(-c3cnn(-c4ccccc4C(F)(F)F)c3)n2)CC1` [Compound 217, N-(1-ethylpiperidin-4-yl)-N-methyl-2-{1-[2-(trifluoromethyl)phenyl]-1H-pyrazol-4-yl}-1,3-thiazole-4-carboxamide], the activation at 0.8 µM was in the range of 10 to 30%.
Same read-out and setting: under `CCN1CCC(N(CC)C(=O)c2csc(-c3cnn(-c4ccccc4)c3)n2)CC1` [Compound 219, N-ethyl-N-(1-ethylpiperidin-4-yl)-2-(1-phenyl-1H-pyrazol-4-yl)-1,3-thiazole-4-carboxamide] stands more than 100%; under `CCN1CCC(N(C)C(=O)c2csc(-c3cnn(-c4ccccn4)c3)n2)CC1` [Compound 221, N-(1-ethylpiperidin-4-yl)-N-methyl-2-[1-(pyridin-2-yl)-1H-pyrazol-4-yl]-1,3-thiazole-4-carboxamide], 10 to 30%.
On the same count and under the same terms, under `C[C@H]1CN(C(=O)c2csc(-c3cnn(-c4cccnc4)c3)n2)CCN1` [Compound 223, (3S)-3-methyl-1-{2-[1-(pyridin-3-yl)-1H-pyrazol-4-yl]-1,3-thiazole-4-carbonyl}piperazine] stands 10 to 30%.
On to `CCN1CCC(N(C)C(=O)c2csc(-c3cnn(-c4cccnc4)c3)n2)CC1` [Compound 224, N-(1-ethylpiperidin-4-yl)-N-methyl-2-[1-(pyridin-3-yl)-1H-pyrazol-4-yl]-1,3-thiazole-4-carboxamide], for which the activation at 0.8 µM lay in the range of 50 to 100%.
In the case of `CCN1CCC(NC(=O)c2csc(-c3cnn(-c4cccnc4)c3)n2)CC1` [Compound 225, N-(1-ethylpiperidin-4-yl)-2-[1-(pyridin-3-yl)-1H-pyrazol-4-yl]-1,3-thiazole-4-carboxamide], the activation at 0.8 µM was in the range of 10 to 30%.
On the same count and under the same terms, under `CCN1CCC(NC(=O)c2csc(-c3cnn(-c4ccncc4)c3)n2)CC1` [Compound 228, N-(1-ethylpiperidin-4-yl)-2-[1-(pyridin-4-yl)-1H-pyrazol-4-yl]-1,3-thiazole-4-carboxamide] stands 10 to 30%; under `C[C@H]1CN(C(=O)c2csc(-c3cnn(-c4cccnn4)c3)n2)CCN1` [Compound 229, 3-(4-{4-[(3S)-3-methylpiperazine-1-carbonyl]-1,3-thiazol-2-yl}-1H-pyrazol-1-yl)pyridazine], 30 to 50%.
Still for that read-out and setting: next, `CCN1CCC(NC(=O)c2csc(-c3cnn(-c4cccnn4)c3)n2)CC1` [Compound 231, N-(1-ethylpiperidin-4-yl)-2-[1-(pyridazin-3-yl)-1H-pyrazol-4-yl]-1,3-thiazole-4-carboxamide]: 10 to 30%.
Turning to `C[C@H]1CN(C(=O)c2csc(-c3cnn(-c4cnccn4)c3)n2)CCN1` [Compound 232, 2-(4-{4-[(3S)-3-methylpiperazine-1-carbonyl]-1,3-thiazol-2-yl}-1H-pyrazol-1-yl)pyrazine], the activation at 0.8 µM is 50 to 100%.
Same read-out and setting: under `CCN1CCC(N(C)C(=O)c2csc(-c3cnn(-c4cnccn4)c3)n2)CC1` [Compound 233, N-(1-ethylpiperidin-4-yl)-N-methyl-2-[1-(pyrazin-2-yl)-1H-pyrazol-4-yl]-1,3-thiazole-4-carboxamide] stands 50 to 100%.
Turning to `CCN1CCC(NC(=O)c2csc(-c3cnn(-c4cnccn4)c3)n2)CC1` [Compound 234, N-(1-ethylpiperidin-4-yl)-2-[1-(pyrazin-2-yl)-1H-pyrazol-4-yl]-1,3-thiazole-4-carboxamide], the activation at 0.8 µM was in the range of 30 to 50%.
For `CC1(C)CN(C(=O)c2csc(-c3cnn(-c4ccccc4)c3)n2)CCN1` [Compound 235, 3,3-dimethyl-1-[2-(1-phenyl-1H-pyrazol-4-yl)-1,3-thiazole-4-carbonyl]piperazine], the activation at 0.8 µM lay within 30 to 50%.
Same read-out and setting: next, `CCN1CCN(C(=O)c2csc(-c3cnn(-c4ccccc4)c3)n2)CC1` [Compound 236, 1-ethyl-4-[2-(1-phenyl-1H-pyrazol-4-yl)-1,3-thiazole-4-carbonyl]piperazine]: 10 to 30%; `CN(C(=O)c1csc(-c2cnn(-c3ccccc3)c2)n1)C1CCN(C(C)(C)C)CC1` [Compound 239, N-(1-tert-butylpiperidin-4-yl)-N-methyl-2-(1-phenyl-1H-pyrazol-4-yl)-1,3-thiazole-4-carboxamide]: 10 to 30%.
The same measure, in the same setting: next, `CCN1C[C@H]2C[C@@H]1CC2NC(=O)c1csc(-c2cnn(-c3ccccc3)c2)n1` (stereo partly drawn) [Compound 244, N-[(1R,4R)-2-ethyl-2-azabicyclo[2.2.1]heptan-5-yl]-2-(1-phenyl-1H-pyrazol-4-yl)-1,3-thiazole-4-carboxamide]: 10 to 30%; `CCN1C[C@@H]2C[C@H]1CC2N(C)C(=O)c1csc(-c2cnn(-c3ccccc3)c2)n1` (stereo partly drawn) [Compound 245, N-[(1S,4S)-2-ethyl-2-azabicyclo[2.2.1]heptan-5-yl]-N-methyl-2-(1-phenyl-1H-pyrazol-4-yl)-1,3-thiazole-4-carboxamide]: 10 to 30%; `CCN1C[C@@H]2C[C@H]1CC2NC(=O)c1csc(-c2cnn(-c3ccccc3)c2)n1` (stereo partly drawn) [Compound 246, N-[(1S,4S)-2-ethyl-2-azabicyclo[2.2.1]heptan-5-yl]-2-(1-phenyl-1H-pyrazol-4-yl)-1,3-thiazole-4-carboxamide]: 10 to 30%.

Staying with this assay, now noted: concentration of 10 μM, 24 hours.
Turning to `C[C@H]1CN(C(=O)c2csc(-c3cnn(-c4cccnc4)c3)n2)CCN1` [Compound 223, (3S)-3-methyl-1-{2-[1-(pyridin-3-yl)-1H-pyrazol-4-yl]-1,3-thiazole-4-carbonyl}piperazine], the “acidic vesicle formation relative to a DMSO-treated control” value was “only a slight increase”.
On the same count and under the same terms, next, `C[C@H]1CN(C(=O)c2csc(-c3cnn(-c4ccncc4)c3)n2)CCN1` [Compound 226, (3S)-3-methyl-1-{2-[1-(pyridin-4-yl)-1H-pyrazol-4-yl]-1,3-thiazole-4-carbonyl}piperazine]: “only a slight increase”; `CCN1CCC(N(C)C(=O)c2csc(-c3cnn(-c4ccncc4)c3)n2)CC1` [Compound 227, N-(1-ethylpiperidin-4-yl)-N-methyl-2-[1-(pyridin-4-yl)-1H-pyrazol-4-yl]-1,3-thiazole-4-carboxamide]: “only a slight increase”; `C[C@H]1CN(C(=O)c2csc(-c3cnn(-c4cnccn4)c3)n2)CCN1` [Compound 232, 2-(4-{4-[(3S)-3-methylpiperazine-1-carbonyl]-1,3-thiazol-2-yl}-1H-pyrazol-1-yl)pyrazine]: “only a slight increase”.
Consider `C[C@H]1CC(N(C)C(=O)c2csc(-c3cnn(-c4ccccc4)c3)n2)CCN1` (stereo partly drawn) [Compound 241, N-methyl-N-[(2S)-2-methylpiperidin-4-yl]-2-(1-phenyl-1H-pyrazol-4-yl)-1,3-thiazole-4-carboxamide], for which the “acidic vesicle formation relative to a DMSO-treated control” value was “only a slight increase”.
